Source: patent US20250154140A1 (Sunnybrook Research Institute, priority 2022, published 2025)

Molecular target: BAX (Homo sapiens, UniProt Q07812)
Experiment: Liposome membrane permeabilization / dye release assay (cBID activated BAX)
Type: biochemical
Set-up: made in house; host or cells: Escherichia coli BL21-AI
Details: 20 nM cBID and 100 nM BAX
Experimental: The preparation of liposomes and dye-release assays were as previously described (Kale et al., 2014). The composition of liposomes, in molar %, to make a 1 mg/mL lipid film are as follows: 48% phosphatidylcholine, 28% phosphatidylethanolamine, 10% phosphatidylinositol, 10% dioleoyl phosphatidylserine, and 4% tetraoleoyl cardiolipin. Each lipid (dissolved in chloroform) was mixed in a glass test tube. Using a steady stream of nitrogen pointed inside the test tube, the tube is rotated to create a film of lipids on the glass. The tube is filled with nitrogen and covered with parafilm. The dried lipid film is then stored at −20° C. until needed. […]
The choice of ANTS/DPX or Terbium:DPA liposomes for dye release assays was dictated by the properties of those compounds being assayed for BAX inhibitory activity, that affected the fluorescence of ANTS or Terbium.
For ANTS/DPX dye release assays: ANTS (fluorophore; excitation 355 nm, emission 520 nm) and DPX (collisional quencher) are encapsulated in reconstituted liposomes. When the membrane is permeabilized, ANTS and DPX diffuse to the outside of the liposomes, decreasing the effective concentration DPX and therefore quenching by […] is decreased and ANTS fluorescence increases. […] The plate was then read a third time to assess the fluorescence of ANTS upon full dissociation of liposomes in each well (F100). […]

Chain of BAX (Q07812 whole entry): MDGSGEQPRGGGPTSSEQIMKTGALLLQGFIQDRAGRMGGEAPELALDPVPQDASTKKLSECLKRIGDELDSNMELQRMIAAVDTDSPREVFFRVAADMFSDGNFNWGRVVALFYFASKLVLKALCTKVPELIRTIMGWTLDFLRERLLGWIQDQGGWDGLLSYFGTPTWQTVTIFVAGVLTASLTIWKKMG

Row | SMILES | BAX inhibitory activity, cBID activated BAX mediated liposome permeabilization
1 | COc1cc2ccnc(Nc3ccc(F)c(Cl)c3)c2cc1NC(=O)CCCN1CCCCC1 [Compound I-1, N-(1-((3-chloro-4-fluorophenyl)amino)-6-methoxyisoquinolin-7-yl)-4-(piperidin-1-yl)butanamide] | retained BAX inhibitory activity equivalent to comparative compound dacomitinib
2 | COc1cc2ncnc(Nc3ccc(F)c(Cl)c3)c2cc1NC(=O)/C=C/CN1CCCCC1 [Dacomitinib, reference compound] | identified in a screen for compounds that inhibit
